Source: US7615643B2 (SmithKline Beecham Corporation, priority 2006, dated 2009)

Biological target: T1, PLK1 (Homo sapiens, UniProt P53350)
T1 construct: PLK kinase domain (amino acids 21-346 preceded by MKKGHHHHHHD); made in house; host or cells: baculovirus infected T. ni cells
Assay: Assay for inhibition of PLK1 (SPA kinase assay)
Type: biochemical
Settings: 1 μM ATP, 2 nM PLK1 kinase domain, read-out: PLK1 pIC50 (converted)
Protocol: I. Assay for Inhibition of PLK1
A. Preparation of 6× N-terminal His-tagged PLK Kinase Domain
6× N-terminal His-tagged PLK kinase domain (amino acids 21-346 preceded by MKKGHHHHHHD) SEQ ID: No. 1. was prepared from baculovirus infected T. ni cells under polyhedrin promoter control. All procedures were performed at 4° C. Cells were lysed In 50 mM HEPES, 200 mM NaCl, 50 mM imidazole, 5% glycerol; pH 7.5. The homogenate was centrifuged at 14K rpm in a SLA-1500 rotor for 1 hr and the supernatant filtered through a 1.2 micron filter. The supernatant was loaded onto a Nickel chelating Sepharose (Amersham Pharmacia) column and washed with lysis buffer. Protein was eluted using 20%, 30% and 100% buffer B steps where buffer B was 50 mM HEPES, 200 mM NaCl, 300 mM imidazole, 5% glycerol; pH 7.5. Fractions containing PLK were determined by SDS-PAGE. Fractions containing PLK were diluted five-fold with 50 mM HEPES, 1 mM DTT, 5% glycerol; pH 7.5, then loaded on an SP Sepharose (Amersham Pharmacia) column. After washing the column with 50 mM HEPES, 1 mM DTT, 5% glycerol; pH 7.5, PLK was step eluted with 50 mM HEPES, 1 mM DTT, 500 mM NaCl; 5% glycerol; pH 7.5. PLK was concentrated using a 10 kDa molecular weight cutoff membrane and then loaded onto a Superdex 200 gel filtration (Amersham Pharmacia) column equilibrated in 25 mM HEPES, 1 mM DTT, 500 mM NaCl, 5% glycerol; pH 7.5. Fractions containing PLK were determined by SDS-PAGE. PLK was pooled, aliquoted and stored at −80° C. Samples were quality controlled using mass spectrometry, N-terminal sequencing and amino acid analysis.
B. Enzyme Activity +/− Inhibitors was Determined as Follows:
All measurements were obtained under conditions where signal production increased linearly with time and enzyme. Test compounds were added to white 384-well assay plates (0.1 μL for 10 μL and some 20 μL assays, 1 μL for some 20 μL assays) at variable known concentrations in 100% DMSO. DMSO (1-5% final, as appropriate) and EDTA (65 mM in reaction) were used as controls. Reaction Mix was prepared as follows at 22° C.: • 25 mM HEPES, pH 7.2 • 15 mM MgCl2 • 1 μM ATP • 0.05 μCi/well ^33P-γ ATP (10 Ci/mMol) • 1 μM substrate peptide (Biotin-Ahx-SFNDTLDFD) SEQ ID:No. 2. • 0.15 mg/mL BSA • 1 mM DTT • 2 nM PLK1 kinase domain (added last)
Reaction Mix (10 or 20 μL) was quickly added to each well immediately following addition of enzyme via automated liquid handlers and incubated 1-1.5 h at 22° C. The 20 μL enzymatic reactions were stopped with 50 μL of stop mix (50 mM EDTA, 4.0 mg/mL Streptavidin SPA beads in Standard Dulbecco's PBS (without Mg^2+ and Ca^2+), 50 μM ATP) per well. The 10 μL reactions were stopped with 10 μL of stop mix (50 mM EDTA, 3.0 mg/mL Streptavidin-coupled SPA imaging Beads (“LeadSeeker”) in Standard Dulbecco's PBS (without Mg^2+ and Ca^2+), 50 μM ATP) per well. Plates were sealed with clear plastic seals, spun at 500×g for 1 min or settled overnight, and counted in Packard TopCount for 30 seconds/well (regular SPA) or imaged using a Viewlux imager (LeadSeeker SPA). Signal above background (EDTA controls) was converted to percent Inhibition relative to that obtained in control (DMSO-only) wells.

T1 sequence (P53350 21-346): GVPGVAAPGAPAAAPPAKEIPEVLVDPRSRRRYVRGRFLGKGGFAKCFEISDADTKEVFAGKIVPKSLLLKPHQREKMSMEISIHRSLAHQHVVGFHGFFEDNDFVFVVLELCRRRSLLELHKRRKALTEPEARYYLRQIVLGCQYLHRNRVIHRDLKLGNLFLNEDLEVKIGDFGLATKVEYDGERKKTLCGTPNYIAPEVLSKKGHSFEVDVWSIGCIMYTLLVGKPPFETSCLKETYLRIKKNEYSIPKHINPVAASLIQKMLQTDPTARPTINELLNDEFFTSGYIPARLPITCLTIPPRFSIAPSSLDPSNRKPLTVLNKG

IC50	Structure (SMILES)
< 100 nM	CC(Oc1cc(-n2cnc3cc(-c4cnn(C)c4)ccc32)sc1C(N)=O)c1cccc(OC2CCNCC2)c1 (racemic) [Example 73, (+/−)-5-[5-(1-Methyl-1H-pyrazol-4-yl)-1H-benzimidazol-1-yl]-3-({1-[3-(4-piperidinyloxy)phenyl]ethyl}oxy)-2-thiophenecarboxamide]
< 100 nM	CC(Oc1cc(-n2cnc3cc(-c4cnn(C)c4)ccc32)sc1C(N)=O)c1cccc(OC2CCN(C)CC2)c1 (racemic) [Example 74, (+/−)-3-[(1-{3-[(1-methyl-4-piperidinyl)oxy]phenyl}ethyl)oxy]-5-[5-(1-methyl-1H-pyrazol-4-yl)-1H -benzimidazol-1-yl]-2-thiophenecarboxamide]
< 100 nM	CC(Oc1cc(-n2cnc3cc(-c4cnn(C)c4)ccc32)sc1C(N)=O)c1cccc(OC2CCNCC2)c1F (racemic) [Example 75, (+/−)-3-({1-[2-Fluoro-3-(4-piperidinyloxy)phenyl]ethyl}oxy)-5-[5-(1-methyl-1H-pyrazol-4-yl)-1H-benzimidazol-1-yl]-2-thiophenecarboxamide]
< 100 nM	CC(Oc1cc(-n2cnc3cc(-c4cnn(C)c4)ccc32)sc1C(N)=O)c1cccc(OC2CCN(C)CC2)c1F (racemic) [Example 76, (+/−)-3-[(1-{2-Fluoro-3-[(1-methyl-4-piperidinyl)oxy]phenyl}ethyl)oxy]-5-[5-(1-methyl-1H-pyrazol-4-yl)-1H-benzimidazol-1-yl]-2-thiophenecarboxamide]
100 to 1000 nM	CC(Oc1cc(-n2cnc3cc(-c4cnn(C)c4)ccc32)sc1C(N)=O)c1ccnc(OC2CCNCC2)n1 (racemic) [Example 77, (+/−)-5-[5-(1-Methyl-1H -pyrazol-4-yl)-1H-benzimidazol-1-yl]-3-({1-[2-(4-piperidinyloxy)-4-pyrimidinyl]ethyl}oxy)-2-thiophenecarboxamide]
100 to 1000 nM	CC(Oc1cc(-n2cnc3cc(-c4cnn(C)c4)ccc32)sc1C(N)=O)c1ccnc(OC2CCN(C)CC2)n1 (racemic) [Example 78, (+/−)-3-[(1-{2-[(1-methyl-4-piperidinyl)oxy]-4-pyrimidinyl}ethyl)oxy]-5-[5-(1-methyl-1H-pyrazol-4-yl)-1H-benzimidazol-1-yl]-2-thiophenecarboxamide]
< 100 nM	CC(Oc1cc(-n2cnc3cc(-c4cnn(C)c4)ccc32)sc1C(N)=O)c1ccnc(OC2CCNCC2)c1 (racemic) [Example 79, (+/−)-5-[5-(1-Methyl-1H-pyrazol-4-yl)-1H-benzimidazol-1-yl]-3-({1-[2-(4-piperidinyloxy)-4-pyridinyl]ethyl}oxy)-2-thiophenecarboxamide]
< 100 nM	CC(Oc1cc(-n2cnc3cc(-c4cnn(C)c4)ccc32)sc1C(N)=O)c1cccc(OC2CCNCC2)n1 (racemic) [Example 81, (+/−)-5-[5-(1-Methyl-1H-pyrazol-4-yl)-1H-benzimidazol-1-yl]-3-({1-[6-(4-piperidinyloxy)-2-pyridinyl]ethyl}oxy)-2-thiophenecarboxamide]
< 100 nM	CC(Oc1cc(-n2cnc3cc(-c4cnn(C)c4)ccc32)sc1C(N)=O)c1cccc(OC2CCN(C)CC2)n1 (racemic) [Example 82, (+/−)-3-[(1-{6-[(1-Methyl-4-piperidinyl)oxy]-2-pyridinyl}ethyl)oxy]-5-[5-(1-methyl-1H-pyrazol-4-yl)-1H-benzimidazol-1-yl]-2-thiophenecarboxamide]
< 100 nM	COc1cc2ncn(-c3cc(O[C@H](C)c4cccc(NCC5CCNCC5)c4Cl)c(C(N)=O)s3)c2cc1OC [Example 1, 5-[5,6-Bis(methyloxy)-1H-benzimidazol-1-yl]-3-[((1R)-1-{2-chloro-3-[(4-piperidinylmethyl)amino]phenyl}ethyl)oxy]-2-thiophenecarboxamide]
< 100 nM	COc1cc2ncn(-c3cc(O[C@H](C)c4cccc(NCC5CCN(C)CC5)c4Cl)c(C(N)=O)s3)c2cc1OC [Example 2]
< 100 nM	C[C@@H](Oc1cc(-n2cnc3cc(Cl)ccc32)sc1C(N)=O)c1cccc(OC2CCN(C)CC2)c1Cl [Example 3]
< 100 nM	C[C@@H](Oc1cc(-n2cnc3ccc(C#N)cc32)sc1C(N)=O)c1cccc(OC2CCN(C)CC2)c1Cl [Example 4, 3-((1R)-1-{2-chloro-3-[(1-methylpiperidin-4-yl)oxy]phenyl}-ethoxy)-5-(6-cyano-1H-benzimidazol-1-yl)thiophene-2-carboxamide]
< 100 nM	C[C@@H](Oc1cc(-n2cnc3ccc(C#N)cc32)sc1C(N)=O)c1cccc(OC2CCNCC2)c1Cl [Example 5, 3-{(1R)-1-[2-chloro-3(piperidin-4-yloxy)phenyl]ethoxy}-5-(6-cyano-1H-benzimidazol-1-yl)thiophene-2-carboxamide]
< 100 nM	C[C@@H](Oc1cc(-n2cnc3ccc(Br)cc32)sc1C(N)=O)c1cccc(OC2CCN(C)CC2)c1Cl [Example 6, 5-(6-Bromo-1H-benzimidazol-1-yl)-3-[((1R)-1-{2-chloro-3-[(1-methyl-4-piperidinyl)oxy]phenyl}ethyl)oxy]-2-thiophenecarboxamide]
< 100 nM	C[C@@H](Oc1cc(-n2cnc3ccc(Br)cc32)sc1C(N)=O)c1cccc(OC2CCNCC2)c1Cl [Example 7, 5-(6-Bromo-1H-benzimidazol-1-yl)-3-({(1R)-1-[2-chloro-3-(4-piperidinyloxy)phenyl]ethyl}oxy)-2-thiophenecarboxamide]
< 100 nM	C[C@@H](Oc1cc(-n2cnc3cc(Cl)ccc32)sc1C(N)=O)c1cccc(OC2CCNCC2)c1Cl [Example 8, 5-(5-Chloro-1H-benzimidazol-1-yl)-3-({(1R)-1-[2-chloro-3-(4-piperidinyloxy)phenyl]ethyl}oxy)-2-thiophenecarboxamide]
< 100 nM	Cc1ccc(-c2ccc3c(c2)ncn3-c2cc(O[C@H](C)c3cccc(OC4CCNCC4)c3Cl)c(C(N)=O)s2)cn1 [Example 9, 3-({(1R)-1-[2-chloro-3-(4-piperidinyloxy)phenyl]ethyl}oxy)-5-[5-(6-methyl-3-pyridinyl)-1H-benzimidazol-1-yl]-2-thiophenecarboxamide]
< 100 nM	Cc1ccc(-c2ccc3c(c2)ncn3-c2cc(O[C@H](C)c3cccc(OC4CCN(C)CC4)c3Cl)c(C(N)=O)s2)cn1 [Example 10, 3-[((1R)-1-{2-chloro-3-[(1-methyl-4-piperidinyl)oxy]phenyl}ethyl)oxy]-5-[5-(6-methyl-3-pyridinyl)-1H-benzimidazol-1-yl]-2-thiophenecarboxamide]
< 100 nM	C[C@@H](Oc1cc(-n2cnc3cc(-c4cccnc4)ccc32)sc1C(N)=O)c1cccc(OC2CCN(C)CC2)c1Cl [Example 11, 3-[((1R)-1-{2-chloro-3-[(1-methyl-4-piperidinyl)oxy]pheny}ethyl)oxy]-5-[5-(3-pyridinyl)-1H-benzimidazol-1-yl]-2-thiopnenecarboxamide]
< 100 nM	C[C@@H](Oc1cc(-n2cnc3cc(-c4cccnc4)ccc32)sc1C(N)=O)c1cccc(OC2CCNCC2)c1Cl [Example 12, 3-({(1R)-1-[2-chloro-3-(4-piperidinyloxy)phenyl]ethyl}oxy)-5-[5-(pyridinyl)-1H-benzimidazol-1-yl]-2-thiophenecarboxamide]
< 100 nM	C[C@@H](Oc1cc(-n2cnc3ccccc32)sc1C(N)=O)c1cccc(OC2CCN(C)CC2)c1Cl [Example 13, 5-(1H-benzimidazol-1-yl)-3-[((1R)-1-{2-chloro-3-[(1-methyl-4-piperidinyl)gxy]phenyl}ethyl)oxy]-2-thiophenecarboxamide]
< 100 nM	C[C@@H](Oc1cc(-n2cnc3ccccc32)sc1C(N)=O)c1cccc(OC2CCNCC2)c1Cl [Example 14, 5-(1H-Benzimidazol-1-yl)-3-({(1R)-1-[2-chloro-3-(4-piperidinyloxy)phenyl]ethyl}oxy)-2-thiophenecarboxamide]
